Data on one compound can be found in ChEMBL document CHEMBL1150472, “Synthesis and immunoregulating activity of vitamin D analogues bearing pregnane side chains” (Bioorg Med Chem Lett, 1992).

For this experiment, the system named is Rattus norvegicus. Nature of the experiment: Compound was tested in ratsdeficient in vitamin D at a dose of 125 ug/kg i.v.; NE denotes no effect was observed on bone calcium mobilization (BCM) and intestinal calcium absorption (ICA). The class given is functional, organism-based.

With `C=C1/C(=C\C=C2/CCC[C@@]3(C)C2CC[C@@H]3C(C)=O)CC(O)C[C@@H]1O` (stereo partly specified), the Activity entry is “No effect”.
